The test system of series [1] is Apo.-induced schizophrenic mouse model. The series is described as follows: Apomorphine-induced schizophrenic mouse model, stereotyped behaviors. In kind it is in vivo. The conditions noted are these: for ED50: Mus musculus, single oral administration, Apo.-induced model, read-out: ED50, inhibition of the total stereotyped behaviors; for Score of stereotyped behaviors: total score in 60 min, mean ± SD. The procedure: The drugs are administered by gastric gavage. The model control group is given the same volume of solvent by gastric gavage.
Total score of the stereotyped behaviors of the mice such as tail erection and wall-climbing in the 60 minutes is calculated.
The clinical response symptoms of the animals shall be recorded during the administration and test procedures.

The nature of another series: in vivo. The following applies: mouse. How it is done: Observation of general symptoms: the animals are observed at about 0.5, 1, 2, 4, and 6 hours respectively, after the first administration on the first day, and observed twice a day, one in the morning and one in the afternoon, on the second to the sixth day. Observed objects include but are not limited to general condition, behavior activity, gait and posture, eye, mouth, nose, gastrointestinal tract, skin and hair, and genitourinary tract. • (2) Statistical Analysis
Body weight is expressed in mean±SD. Comparison among groups is carried out with Levene's test and one-way ANOVA, followed by Dunnet t test if there exists a difference.
(1) The acute toxicity of the representative compounds of □, □, □ classes is investigated with the method of Example 81.

Series [2] has as its system Salmonella typhimurium TA98 and TA100. In words: Bacterial reverse mutation test (Ames). The conditions noted are these: TA98 and TA100, with or without S9.
Series [3] addresses human recombinant D3 receptor (Homo sapiens (Human), UniProt P35462). In words: Dopamine D3 receptor binding test. The following applies: read-out: Affinity of the compound to D3 receptor, Ki value. The procedure: With [^3H]methyl-spiperone (0.3 nM) as the ligand and (+)-butaclamol (10 LM) for determining non-specific binding, binding tests are carried out on human recombinant D3 receptor (expressed in CHO cells).

In a further series the target is D2 receptor (Homo sapiens (Human), UniProt P14416). In words: Dopamine D2 receptor binding test. The following applies: [3H]Spiperone, D2 receptor expressed in HEK293 cells; read-out: Affinity of the compound to D2 receptor, Ki value. The source says:
This experiment utilizes the plasmid vector containing the gene of D2 receptor protein for transfecting HEK293 cells by calcium phosphate transfection method.
(§1) Beckman LS-6500 multifunction liquid scintillation counter.

Series [4] deals with MK-801-induced schizophrenic mouse model. In words: MK-801-induced schizophrenic mouse model, open-field movement. The conditions noted are these: for ED50: Mus musculus, po, read-out: ED50, total distance of the open-field movement; for Total distance of the spontaneous movement (cm): 60 min, mean ± SD.
For the next series, the target named is 5-HT1A receptor (Homo sapiens (Human), UniProt P08908). In words: 5-HT1A receptor binding test. The following applies: read-out: Affinity of the compound to 5-HT1A receptor, Ki value; [3H]8-OH-DPAT, HEK-293 cells expressing 5-HT1A receptors. How it is done: Cells: HEK-293 cells stably expressing 5-HT1A receptors as obtained by gene recombination are cultured for 3-5 days in cell culture medium DMEM supplemented with 10% serum.
Sequence of 5-HT1A receptor (P08908 whole entry): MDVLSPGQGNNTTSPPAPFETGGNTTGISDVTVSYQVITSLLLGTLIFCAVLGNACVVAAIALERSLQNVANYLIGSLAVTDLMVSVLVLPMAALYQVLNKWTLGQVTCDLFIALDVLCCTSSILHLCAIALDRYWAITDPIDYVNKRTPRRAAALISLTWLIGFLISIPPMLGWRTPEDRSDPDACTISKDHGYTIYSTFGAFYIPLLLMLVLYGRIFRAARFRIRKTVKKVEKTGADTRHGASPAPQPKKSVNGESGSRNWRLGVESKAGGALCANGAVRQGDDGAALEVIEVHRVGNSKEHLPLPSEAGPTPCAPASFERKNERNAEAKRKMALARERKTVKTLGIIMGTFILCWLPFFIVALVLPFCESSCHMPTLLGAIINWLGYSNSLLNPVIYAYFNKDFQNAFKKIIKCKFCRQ
Competitive inhibition ratio of each compound at the concentration of 10 μmol/L to inhibit the binding of [^3H]8-OH-DPAT to 5-HT1A receptor is determined for primary screening.
The components are mixed to homogeneity, and then the above tubes are transferred to water bath at 30° C. (1 h), removed into ice bath immediately, and suction filtered on Harvest (with ice cold Tris eluate for 5 times).

In the next series the target is 5-HT2A receptor (Homo sapiens (Human), UniProt P28223). In words: 5-HT2A receptor binding test. The conditions noted are these: read-out: Affinity of the compound to 5-HT2A receptor, Ki value.
Sequence of 5-HT2A receptor (P28223 whole entry): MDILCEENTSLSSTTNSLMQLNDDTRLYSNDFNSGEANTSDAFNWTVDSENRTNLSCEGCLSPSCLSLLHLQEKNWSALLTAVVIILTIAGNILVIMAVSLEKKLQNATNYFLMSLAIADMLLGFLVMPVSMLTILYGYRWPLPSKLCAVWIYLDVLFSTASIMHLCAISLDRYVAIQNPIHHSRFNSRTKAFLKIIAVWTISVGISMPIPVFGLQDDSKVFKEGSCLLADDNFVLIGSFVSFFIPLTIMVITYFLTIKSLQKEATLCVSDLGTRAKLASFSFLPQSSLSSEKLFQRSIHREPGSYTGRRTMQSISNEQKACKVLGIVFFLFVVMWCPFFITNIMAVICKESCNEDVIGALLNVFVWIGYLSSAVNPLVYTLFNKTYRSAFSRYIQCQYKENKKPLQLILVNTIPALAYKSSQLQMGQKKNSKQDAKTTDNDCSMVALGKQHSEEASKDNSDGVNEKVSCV
From the text: as §1

[5] abbreviates: single oral administration, ICR mice, read-out: LD50.
The mark [6] stands for this setting: [3H]methyl-spiperone 0.3 nM, human recombinant D3 receptor in CHO cells.
The mark [7] stands for this setting: [3H]-Ketanserin, 5-HT2A receptor expressed in HEK293 cells.

Where two headings read alike, the source gives them in different places.

Sequence of D2 receptor (P14416 whole entry): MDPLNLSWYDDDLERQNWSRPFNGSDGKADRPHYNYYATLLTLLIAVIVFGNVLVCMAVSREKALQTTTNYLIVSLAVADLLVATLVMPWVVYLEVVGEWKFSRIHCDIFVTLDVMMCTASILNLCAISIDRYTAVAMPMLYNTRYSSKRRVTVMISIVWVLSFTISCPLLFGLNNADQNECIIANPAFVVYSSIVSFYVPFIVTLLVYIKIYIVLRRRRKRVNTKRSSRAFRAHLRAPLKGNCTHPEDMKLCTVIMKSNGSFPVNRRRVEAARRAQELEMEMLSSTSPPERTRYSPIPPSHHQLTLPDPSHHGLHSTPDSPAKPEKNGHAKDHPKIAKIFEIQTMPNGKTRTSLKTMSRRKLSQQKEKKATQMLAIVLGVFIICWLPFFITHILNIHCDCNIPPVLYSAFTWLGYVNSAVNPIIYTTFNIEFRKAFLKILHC
Sequence of human recombinant D3 receptor (P35462 whole entry): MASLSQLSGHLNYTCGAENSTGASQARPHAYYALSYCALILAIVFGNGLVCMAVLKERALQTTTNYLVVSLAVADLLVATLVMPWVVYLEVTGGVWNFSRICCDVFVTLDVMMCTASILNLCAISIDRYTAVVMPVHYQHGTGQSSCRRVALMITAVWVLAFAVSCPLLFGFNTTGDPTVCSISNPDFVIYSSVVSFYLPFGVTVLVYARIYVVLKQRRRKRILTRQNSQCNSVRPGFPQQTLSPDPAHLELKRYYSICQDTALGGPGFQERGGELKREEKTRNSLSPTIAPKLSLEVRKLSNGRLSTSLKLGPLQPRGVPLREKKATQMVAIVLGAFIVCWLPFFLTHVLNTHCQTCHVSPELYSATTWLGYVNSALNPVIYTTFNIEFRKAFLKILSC

By ED50 is commonly meant the dose that gives a 50% effect, or the effect in half of the subjects. Usually LD50 stands for the dose at which mortality reaches 50%. By Ki is commonly meant a measure of affinity in units of concentration, obtained from inhibition or displacement. As for `O=C(N[C@H]1CC[C@@H](CCN2CCN(c3nsc4ccccc34)CC2)CC1)c1cc2ccccc2[nH]1` [Compound I-22, cis-N-(4-(2-(4-(benzo[d]isothiazol-3-yl)piperazin-1-yl)ethyl)cyclohexyl)-1H-indolyl-2-carboxamide], the ED50 in series [1] was 0.59 mg/kg; in series [4] it was 0.062 mg/kg. Also, the LD50 at 6 days in “in vivo” (ICR, po) was found to be 1530 mg/kg. For the same compound, the “Ames test result (colonies with reverse mutations)” value (“Ames test result” for short) in series [2] is recorded as “negative”. Moreover, the figures for the Ki (in series [3]; on D2 receptor) were 0.071 nM and 1.9 nM, respectively.

Turning to `COC(=O)N[C@H]1CC[C@@H](CCN2CCN(c3nsc4ccccc34)CC2)CC1` [III-14, cis-(4-(2-(4-(benzo[d]isothiazol-3-yl)piperazin-1-yl)ethyl)cyclohexyl)methylcarbamate], the ED50 was 0.45 mg/kg in series [1] and 0.058 mg/kg in series [4]. The LD50 at 6 days in the series “in vivo” (setting [5]) was determined as 1080 mg/kg. Also, the “Ames test result” value in series [2] was “negative”.

`O=S(=O)(N[C@H]1CC[C@H](CCN2CCN(c3nsc4ccccc34)CC2)CC1)c1cccs1` [II-1, trans-N-(4-(2-(4-(benzo[d]isothiazol-3-yl)piperazin-1-yl)ethyl)cyclohexyl)thienyl-2-sulfamide]: the Ki at 5-HT1A receptor was determined as 3.3 nM; in series [3] (setting [6]), 0.043 nM; at D2 receptor it was 0.43 nM. Further, the values for the ED50 in series [1] and in series [4] were 0.2 mg/kg and 0.074 mg/kg, respectively. In “in vivo” (ICR, po), this compound displayed a median lethal dose (LD50) at 6 days greater than 2000 mg/kg. For the same compound, the “Ames test result” value in series [2] is “negative”.

Regarding `O=C(N[C@H]1CC[C@H](CCN2CCN(c3nsc4ccccc34)CC2)CC1)OCc1ccccc1` [III-11], the ED50 in series [1] turned out to be 0.1 mg/kg; in series [4], 0.092 mg/kg. Also, the LD50 at 6 days in the series “in vivo” (setting [5]) was found to be 1240 mg/kg. Moreover, the “Ames test result” value in series [2] is recorded as “negative”.

Consider `O=C(N[C@H]1CC[C@H](CCN2CCN(c3nsc4ccccc34)CC2)CC1)c1cc2cc([N+](=O)[O-])ccc2[nH]1` [Compound I-15, trans-N-(4-(2-(4-(benzo[d]isothiazol-3-yl)piperazin-1-yl)ethyl)cyclohexyl)-5-nitro-1H-indolyl-2-carboxamide], for which the inhibition constant (Ki) on 5-HT1A receptor turned out to be 8.45 nM; on 5-HT2A receptor (setting [7]), 2.65 nM; in series [3] (setting [6]) it was 4.03 nM; at D2 receptor, 21.3 nM.

In the case of `O=S(=O)(N[C@H]1CC[C@H](CCN2CCN(c3nsc4ccccc34)CC2)CC1)c1cc2ccccc2o1` [II-5, trans-N-(4-(2-(4-(benzo[d]isothiazol-3-yl)piperazin-1-yl)ethyl)cyclohexyl)benzofuryl-2-sulfamide], the figures for the Ki (on 5-HT1A receptor; in series [3]; at D2 receptor) were 10.6 nM, 0.085 nM and 0.58 nM, respectively. For the same compound, the results for the median effective dose (ED50) in series [1] and in series [4] were 0.64 mg/kg and 0.088 mg/kg, respectively. In “in vivo” (ICR, po), this compound had a 50% lethal dose (LD50) at 6 days of 1100 mg/kg. Moreover, the “Ames test result” value in series [2] is reported as “negative”.

For the compound `CN(C(=O)N[C@H]1CC[C@H](CCN2CCN(c3nsc4ccccc34)CC2)CC1)c1ccccc1` [IV-6, trans-3-(4-(2-(4-(benzo[d]isothiazol-3-yl)piperazin-1-yl)ethyl)cyclohexyl)-1-methyl-1-phenylurea], the Ki came out at 4.6 nM at 5-HT1A receptor and 0.13 nM in series [3]. For the same compound, the 50% effective dose (ED50) in series [1] worked out at 0.48 mg/kg; in series [4], 0.084 mg/kg. In “in vivo” (ICR, po), this compound had an LD50 at 6 days of 1390 mg/kg. Also, the “Ames test result” value in series [2] is given as “negative”.

Consider `O=C(N[C@H]1CC[C@H](CCN2CCN(c3nsc4ccccc34)CC2)CC1)c1cc2ccccc2s1` [Compound I-6, trans-N-(4-(2-(4-(benzo[d]isothiazol-3-yl)piperazin-1-yl)ethyl)cyclohexyl)benzo[b]thienyl-2-carboxamide], for which the results for the 50% effective dose (ED50) in series [1] and in series [4] were 0.23 mg/kg and 0.038 mg/kg, respectively. Moreover, the “effect on stereotyped behaviors (in words)” value in series [1] (apomorphine mouse model, oral) is listed as “greater improvement ratio than RGH-188”. Further, the “Score of stereotyped behaviors” value in series [1] (single oral administration 0.12 mg/kg) came to 23.02 ± 8.32; in series [1] (single oral administration 0.40 mg/kg), 4.01 ± 3.65; in series [1] (single oral administration 0.90 mg/kg), 0.71 ± 0.94. Moreover, the inhibition constant (Ki) on 5-HT2A receptor worked out at 0.72 nM; in series [3], 0.035 nM; at D2 receptor it was 1.81 nM. The same compound yielded an LD50 at 6 days in the series “in vivo” (ICR, po) greater than 2000 mg/kg. The “Ames test result” value in series [2] was “negative”. Further, the “effect on the open-field movement (in words)” value in series [4] (MK-801 mouse model, oral) was “greater improvement ratio than RGH-188”. For the same compound, the “Total distance of the spontaneous movement (cm)” value in series [4] (single oral administration 0.02 mg/kg) was 19482.27 ± 11047.75 cm; in series [4] (single oral administration 0.03 mg/kg), 17280.33 ± 9364.31 cm; in series [4] (single oral administration 0.05 mg/kg), 11145.52 ± 6988.56 cm; in series [4] (single oral administration 0.09 mg/kg), 7796.38 ± 4382.94 cm.

With `CCc1c(C(=O)N[C@H]2CC[C@H](CCN3CCN(c4nsc5ccccc45)CC3)CC2)sc2ccccc12` [Compound I-13, trans-N-(4-(2-(4-(benzo[d]isothiazol-3-yl)piperazin-1-yl)ethyl)cyclohexyl)-3-ethylbenzo[b]thienyl-2-carboxamide], the inhibitory constant (Ki) on 5-HT1A receptor turned out to be 4.07 nM; on 5-HT2A receptor (setting [7]) it was 4.9 nM; in series [3] (setting [6]), 1.42 nM; on D2 receptor, 1.78 nM.

With `O=C(Nc1ccccc1)N[C@H]1CC[C@H](CCN2CCN(c3nsc4ccccc34)CC2)CC1` [IV-1, trans-1-(4-(2-(4-(benzo[d]isothiazol-3-yl)piperazin-1-yl)ethyl)cyclohexyl)-3-phenylurea], the Ki was 3.65 nM on 5-HT1A receptor, 0.83 nM at 5-HT2A receptor (setting [7]), 1.42 nM in series [3] (setting [6]) and 1.06 nM on D2 receptor.

As to `CC(C)COC(=O)N[C@H]1CC[C@H](CCN2CCN(c3nsc4ccccc34)CC2)CC1` [III-3, trans-N-(4-(2-(4-(benzo[d]isothiazol-3-yl)piperazin-1-yl)ethyl)cyclohexyl)isobutylcarbamate], the ED50 in series [1] was 0.76 mg/kg; in series [4], 0.061 mg/kg. In the series “in vivo” (setting [5]), the median lethal dose (LD50) at 6 days is greater than 2000 mg/kg. Further, the “Ames test result” value in series [2] was “negative”.

Turning to `O=S(=O)(N[C@H]1CC[C@H](CCN2CCN(c3nsc4ccccc34)CC2)CC1)c1ccc(Cl)o1` [II-8, trans-N-(4-(2-(4-(benzo[d]isothiazol-3-yl)piperazin-1-yl)ethyl)cyclohexyl)-5-chlorofuryl-2-sulfamide], the Ki was found to be 3.96 nM on 5-HT1A receptor, 1.96 nM on 5-HT2A receptor (setting [7]), 4.51 nM in series [3] (setting [6]) and 10.8 nM at D2 receptor.

Consider `Cc1ccsc1C(=O)N[C@H]1CC[C@H](CCN2CCN(c3nsc4ccccc34)CC2)CC1` [Compound I-11, trans-N-(4-(2-(4-(benzo[d]isothiazol-3-yl)piperazin-1-yl)ethyl)cyclohexyl)-3-methylthienyl-2-carboxamide], for which the Ki at 5-HT1A receptor worked out at 2.84 nM; at 5-HT2A receptor (setting [7]) it was 2.01 nM; in series [3] (setting [6]), 0.37 nM; on D2 receptor it was 4.81 nM.

Take `O=C(N[C@H]1CC[C@H](CCN2CCN(c3nsc4ccccc34)CC2)CC1)c1cc2ccccc2[nH]1` [Compound I-4, trans-N-(4-(2-(4-(benzo[d]isothiazol-3-yl)piperazin-1-yl)ethyl)cyclohexyl)-1H-indolyl-2-carboxamide]: the median effective dose (ED50) in series [1] came out at 0.37 mg/kg; in series [4], 0.073 mg/kg. The compound also displayed an LD50 at 6 days in the series “in vivo” (ICR, po) greater than 2000 mg/kg. Moreover, the “Ames test result” value in series [2] was “negative”. For the same compound, the results for the inhibition constant Ki (in series [3]; on D2 receptor) were 0.029 nM and 0.43 nM, respectively.

Source of the values: patent US9550741B2, “Benzoisothiazole compounds and methods of treating schizophrenia” (SHANGHAI INSTITUTE OF PHARMACEUTICAL INDUSTRY, priority 2013, dated 2017).
